Assay results reported in patent publication US8236279B2, “Bisaminoethanethiol-targeting ligand conjugates and compositions” (priority 1999, dated 2012).
Entries after “also recorded” stand apart in the source; their conditions may differ.

Key:
[1] = list continues over wrapped lines of the table; cited from earlier work
[2] = Effect of loading on blood glucose level in normal rats; type: in vivo, Fischer 344 rats; details: insulin (5 units) after 30 minutes
Procedure: The blood glucose level (mg/dl) was determined by a glucose meter (Glucometer DEX, Bayer Corporation, Elkhart, Ind.). Prior to the study, the baseline of blood glucose level was obtained. […] In a separate experiment, a group of rats was administered EC-deoxyglucose and FDG. Insulin (5 units) was administered after 30 minutes.

[3] = test system: hexokinase; experiment: Hexokinase assay (glucose phosphorylation); type: biochemical; details: UV wavelength 340 nm
Procedure: To determine if EC-DG mimics glucose phosphorylation, a hexokinase assay was conducted. Using a ready made kit (Sigma Chemical Company), EC-DG, glucosamine and glucose (standard) were assayed at UV wavelength 340 nm.

[4] = test system: Breast Tumor-Bearing Rats (13762 tumor cell line); experiment: Tissue distribution (biodistribution) studies in breast tumor-bearing rats; details: for tumor/blood and tumor/muscle count density ratios, course over time: […] (so in the source); for Biodistribution: Brain / Biodistribution: Heart / Biodistribution: Spleen / Tumor/Blood ratio / Tumor/Liver ratio / Tumor/Muscle ratio: Table 9
Procedure: Studies performed 14 to 17 days after implantation when tumors reached approximately 1 cm diameter. Animals were anesthetized with ketamine (10-15 mg/rat, intraperitoneally) before each procedure.
The injected mass of each ligand was 10 μg per rat. At 20 min, 1, 2 and 4 h following administration of the radiopharmaceuticals, the anesthetized animals were sacrificed and the tumor and selected tissues were excised, weighed and counted for radioactivity by a gamma counter (Packard Instruments, Downers Grove, Ill.). The biodistribution of tracer in each sample was calculated as percentage of the injected dose per gram of tissue wet weight (% ID/g). Counts from a diluted sample of the original injectate were used for reference. Tumor/nontarget tissue count density ratios were calculated from the corresponding % ID/g values. Student-t test was used to assess the significance of differences between two groups.
Studies performed 14 to 17 days after implantation when tumors reached approximately 1 cm diameter. Rats were anesthetized with ketamine (10-15 mg/rat, intraperitoneally) before each procedure.
In tissue distribution studies, each animal was injected intravenously with 370-550 KBq of ^99mTc-EC-MN or ^99mTc-EC (n=3/time point). The injected mass of ^99mTc-EC-MN was 10 μg per rat. At 0.5, 2 and 4 hrs following administration of the radiotracers, the rats were sacrificed and the selected tissues were excised, weighed and counted for radioactivity. The biodistribution of tracer in each sample was calculated as percentage of the injected dose per gram of tissue wet weight (% ID/g). Tumor/nontarget tissue count density radios were calculated from the corresponding % ID/g values. […] Student t-test was used to assess the significance of differences between groups.
(§1) At 0.5, 2 and 4 hrs following administration of the radiotracers, the rats were sacrificed and the selected tissues were excised, weighed and counted for radioactivity. The biodistribution of tracer in each sample was calculated as percentage of the injected dose per gram of tissue wet weight (% ID/g). Tumor/nontarget tissue count density ratios were calculated from the corresponding % ID/g values. Student t-test was used to assess the significance of differences between groups.
as §1, with “hours” for “hrs”, “values.” for “values. Student t-test was used to assess the significance of differences between groups.”
Studies were performed 14 to 17 days after implantation when tumors reached approximately 1 cm diameter. Rats were anesthetized with ketamine (10-15 mg/rat, intraperitoneally) before each procedure.
In tissue distribution studies, each animal was injected intravenously with 10-20 μCi (per rat) or 1-2 μCi (per mouse) of ^99mTc-EC or ^99mTc-EC-DG (n=3/time point). The injected mass of ^99mTc-EC-DG was 1 mg per rat. At 0.5, 2 and 4 hours following administration of the radiotracers, the rodents were sacrificed and the selected tissues were excised, weighed and counted for radioactivity. The biodistribution of tracer in each sample was calculated as percentage of the injected dose per gram of tissue wet weight (% ID/g). Tumor/nontarget tissue count density ratios were calculated from the corresponding % ID/g values.

[5] = test system: breast (13762) and lung (A549) cancer cells; experiment: Effect of d- and l-glucose on cellular uptake; type: cell-based; details: 1-2.0 mg/well, 2 hours incubation
Procedure: To evaluate if the uptake of ^99mTc-EC-deoxyglucose is mediated via d-glucose mechanism, d- and l-glucose (1 mg and 2.0 mg) were added to, each well containing either breast or lung cancer cells (50,000/0.5 ml/well), along with 2 μCi of ^99mTc-EC-deoxyglucose and ^18F-FDG. After 2 hours incubation, the cells were washed with phosphate buffered saline 3 times and followed by trypsin to lose the cells. The cells were counted by a gamma counter.

[6] = test system: breast tumor-bearing rats; experiment: Scintigraphic (gamma camera) imaging studies in tumor-bearing rats; type: in vivo; details: different time points (0.5-4 hrs) after i.v. injection
[7] = test system: two lung cancer cell lines and one breast cell line (A549, H1299, 13762); experiment: Effect of glucose on cellular uptake; type: cell-based
Procedure: Neomycin is known to influence glucose absorption (Rogers et al., 1968; Fanciulli et al., 1994). […] After incubation, the cells were washed with phosphate buffered saline 3 times and followed by trypsin to lose the cells. The cells were then counted by a gamma counter.

[8] = test system: A549 lung cancer cell line; experiment: In vitro cellular uptake assay; type: cell-based, human; details: 2 μCi per well, 80,000 cells, incubation 0.5-4 hours
Procedure: After incubation at 0.5-4 hours, the cells were washed with phosphate buffered saline 3 times and followed by trypsin to lose the cells.
In vitro cellular uptake assay was conducted by using a human lung cancer cell line (A549). Two μCi of ^99mTc-EC-DG and ^18F-FDG were added to wells containing 80,000 cells each. After incubation at 0.5-4 hours, the cells were washed with phosphate buffered saline 3 times and followed by trypsin to lose the cells. The cells were then counted by a gamma counter.

[9] = test system: patients (3 brain tumors and 2 lung diseases); experiment: Preliminary clinical imaging studies in patients (brain tumors, lung diseases); type: in vivo, human; details: images 1-2 hours post-administration
Procedure: Scintigraphic images, using a gamma camera equipped with low-energy, parallel-hole collimator, were obtained 0.5, 2 and 4 hours after i.v. injection of 100 μCi of the radiotracer. The animal model used was breast tumor-bearing rats. […] Preliminary clinical studies were conducted in 5 patients (3 brain tumors and 2 lung diseases).

[10] = Water solubility; type: physicochemical

CCC1(c2ccc(N)cc2)CCC(=O)NC1=O (centres unmarked) [Aminogiutethimide]
Acute Toxicity [1]: Drowsiness; nausea; dizziness; rash | Delayed toxicity [1]: Hypothryroidism (rare); bone

COc1cc(NS(C)(=O)=O)ccc1Nc1c2ccccc2nc2ccccc12 [Amsacrine]
Delayed toxicity [1]: Bone marrow depression;

OC[C@H]1OC(O)[C@H](F)[C@@H](O)[C@@H]1O (some centres unmarked) [FDG]
increased blood glucose level on co-administration with insulin [2]: suppressed

OC[C@H]1OC(O)[C@H](O)[C@@H](O)[C@@H]1O (some centres unmarked) [Glucose]
hexokinase assay [3]: positive

O=[N+]([O-])c1nccn1CC(O)C[18F] (centres unmarked) [[^18F]FMISO]
tumor-to-blood uptake ratio, comparison among [18F]FMISO, [131I]IMISO and 99mTc-EC-MN ([4]; 30 min, 2 and 4 hrs post-injection): highest | tumor/blood and tumor/muscle count density ratios, course over time [4]: gradually increased

O=[N+]([O-])c1nccn1CC(O)C[131I] (centres unmarked) [[^131I]IMISO]
Tumor/blood and tumor/muscle ratios, 99mTc-EC-MN versus [131I]IMISO ([4]; 2 and 4 hrs postinjection, (p<0.05) as printed): not significantly different | tumor/blood and tumor/muscle count density ratios, course over time [4]: gradually increased

OC[C@H]1OC(O)[C@H]([18F])[C@@H](O)[C@@H]1O (some centres unmarked) [^18F-FDG]
effect of d-glucose on cellular uptake [5]: decreased uptake | effect of l-glucose on cellular uptake [5]: no influence

[O]=[99Tc](=[O])(=[O])[O-] [^99mTc Pertechnetate]
Biodistribution: Brain ([4]; 2 Hour): 0.022 ± 0.002 % ID/g | Biodistribution: Heart ([4]; 2 Hour): 0.145 ± 0.015 % ID/g | Biodistribution: Spleen ([4]; 2 Hour): 0.187 ± 0.014 % ID/g | Tumor/Blood ratio ([4]; 2 Hour): 0.497 ± 0.073 | Tumor/Liver ratio ([4]; 2 Hour): 1.084 ± 0.115 | Tumor/Muscle ratio ([4]; 2 Hour): 4.302 ± 0.093 | Biodistribution: Brain ([4]; 4 Hour): 0.031 ± 0.009 % ID/g | Biodistribution: Heart ([4]; 4 Hour): 0.166 ± 0.012 % ID/g | Biodistribution: Spleen ([4]; 4 Hour): 0.225 ± 0.017 % ID/g | Tumor/Blood ratio ([4]; 4 Hour): 0.597 ± 0.144 | Tumor/Liver ratio ([4]; 4 Hour): 0.865 ± 0.270 | Tumor/Muscle ratio ([4]; 4 Hour): 6.689 ± 1.458 | Biodistribution: Brain ([4]; 30 Min.): 0.038 ± 0.014 % ID/g | Biodistribution: Heart ([4]; 30 Min.): 0.275 ± 0.089 % ID/g | Biodistribution: Spleen ([4]; 30 Min.): 0.331 ± 0.108 % ID/g | Tumor/Blood ratio ([4]; 30 Min.): 0.472 ± 0.093 | Tumor/Liver ratio ([4]; 30 Min.): 1.084 ± 0.023 | Tumor/Muscle ratio ([4]; 30 Min.): 4.788 ± 0.833

O=C(O)[C@@H]1C[S][99Tc]23(=[O])[S]C[C@@H](C(=O)O)[N]2CC[N]13 [^99mTc-EC, ^99mTc-L,L-ethylenedicysteine]
tumor/blood count density ratios, course over time ([4]; 20 min-4 h): decreased | tumor/blood and tumor/muscle count density ratios, course over time [4]: did not alter | tumor-to-blood and tumor-to-muscle values, course over time ([4]; same time period (0.5-4 hours)): time-dependent decrease | Scintigraphic images: visualization of tumor / tumor uptake [6]: no apparent tumor uptake; also recorded: less tumor uptake | cellular uptake of control [7]: no uptake

O=C(N[C@H]1C(O)O[C@H](CO)[C@@H](O)[C@@H]1O)[C@@H]1C[S][Tc]23(=[O])[S]C[C@@H](C(=O)N[C@H]4C(O)O[C@H](CO)[C@@H](O)[C@@H]4O)[N]2CC[N]13 (some centres unmarked) [^99mTc-EC-DG]
tumor-to tissue ratios, course over time, compared to 99mTc-EC and free technetium ([4]; 0.5-4 hours): increased as a function of time | Scintigraphic images: visualization of tumor / tumor uptake [6]: visualized well | Scintigraphic images: visualization of tumor / tumor uptake ([6]; listed as 99mTc-EC-deoxyglucose): well visualized | cellular uptake [8]: comparable to FDG | effect of d-glucose on cellular uptake [5]: decreased uptake | effect of l-glucose on cellular uptake [5]: no influence | differentiation of benign versus malignant tumors [9]: able to differentiate benign versus malignant tumors | uptake in benign meningioma [9]: no focal intensed uptake; also recorded: poor uptake | uptake in lung tumor [9]: focal intensed uptake; also recorded: high uptake | uptake in malignant astrocytoma [9]: high uptake | uptake in patient with TB [9]: no focal intensed uptake; also recorded: Poor uptake

N[C@H]1C(O)O[C@H](CO)[C@@H](O)[C@@H]1O (some centres unmarked) [glucosamine]
hexokinase assay [3]: positive

Aldesleukin
Acute Toxicity [1]: Fever; fluid retention; hypertension; | Delayed toxicity [1]: Neuropsychiatric disorders;

L,L-ethylenedicysteine [EC]
water solubility [10]: water soluble

B1: Asparaginase: anticancer drug listed in Table 2 (protein, UniProt P00805 23-348, looked up)
L-asparaginase 2: LPNITILATGGTIAGGGDSATKSNYTVGKVGVENLVNAVPQLKDIANVKGEQVVNIGSQDMNDNVWLTLAKKINTDCDKTDGFVITHGTDTMEETAYFLDLTVKCDKPVVMVGAMRPSTSMSADGPFNLYNAVVTAADKASANRGVLVVMNDTVLDGRDVTKTNTTDVATFKSVNYGPLGYIHNGKIDYQRTPARKHTSDTPFDVSKLNELPKVGIVYNYANASDLPAKALVDAGYDGIVSAGVGNGNLYKSVFDTLATAAKTGTAVVRSSRVPTGATTQDAEVDDAKYGFVASGTLNPQKARVLLQLALTQTKDPQQIQQIFNQY
Acute Toxicity [1]: Nausea and vomiting; fever; chills;
